Our source for the IC50, Activity and inhibition values is ChEMBL document CHEMBL3407358, “Boehmeriasin A as new lead compound for the inhibition of topoisomerases and SIRT2” (Eur J Med Chem, 2015).

Experiment [1] can be described thus: Antiproliferative activity against bovine BAEC cells after 3 days by Coulter counter method. The settings on record: Bos taurus, 72 h. The format is functional, cell-based.
Experiment [2] deals with HeLa. In words: Antiproliferative activity against human HeLa cells after 4 days by Coulter counter method. The following applies: 96 h. The format is functional, cell-based.
Experiment [3] deals with CCRF-CEM. In words: Antiproliferative activity against human CEM cells after 96 hrs by Coulter counter method. The format is functional, cell-based.
Experiment [4] concerns L1210. In words: Antiproliferative activity against mouse L1210 cells after 48 hrs by Coulter counter method. The format is functional, cell-based. The settings on record: L1210, 48 h.
Experiment [5] is described as follows: Antiproliferative activity against human HMEC1 cells after 4 days by Coulter counter method. The format is functional, cell-based. The following applies: HMEC-1, 96 h.
Experiment [6] addresses T1, DNA topoisomerase 1 (Homo sapiens) (UniProt P11387).
T1 sequence (whole entry): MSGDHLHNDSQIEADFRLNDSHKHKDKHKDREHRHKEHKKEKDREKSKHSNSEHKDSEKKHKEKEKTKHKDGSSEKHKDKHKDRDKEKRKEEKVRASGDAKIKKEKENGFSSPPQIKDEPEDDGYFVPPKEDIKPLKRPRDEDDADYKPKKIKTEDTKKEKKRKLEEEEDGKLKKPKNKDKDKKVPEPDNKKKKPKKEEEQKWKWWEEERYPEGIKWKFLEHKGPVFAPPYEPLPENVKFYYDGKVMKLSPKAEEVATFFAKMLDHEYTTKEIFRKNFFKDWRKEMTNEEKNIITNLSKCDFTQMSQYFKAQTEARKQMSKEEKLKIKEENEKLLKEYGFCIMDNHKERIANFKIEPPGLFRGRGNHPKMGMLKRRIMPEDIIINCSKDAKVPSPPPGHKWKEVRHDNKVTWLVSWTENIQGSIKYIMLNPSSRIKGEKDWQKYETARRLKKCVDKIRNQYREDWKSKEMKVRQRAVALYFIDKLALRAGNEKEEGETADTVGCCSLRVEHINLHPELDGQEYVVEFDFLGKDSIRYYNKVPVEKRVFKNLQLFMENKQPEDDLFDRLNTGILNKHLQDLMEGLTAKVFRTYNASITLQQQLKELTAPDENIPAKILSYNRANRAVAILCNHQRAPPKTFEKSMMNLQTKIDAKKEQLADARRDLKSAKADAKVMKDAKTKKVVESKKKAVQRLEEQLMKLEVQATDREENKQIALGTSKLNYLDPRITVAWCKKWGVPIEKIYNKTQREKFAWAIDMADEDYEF
In words: Stabilization of recombinant human topoisomerase 1-pBR322 DNA cleavage complex assessed as linear DNA formation at 0.5 uM after 60 mins by agarose gel electrophoresis.

Experiment [7] concerns the target DNA topoisomerase 2-alpha (Homo sapiens) (UniProt P11388). Description: Stabilization of recombinant human topoisomerase 2-pBR322 DNA cleavage complex assessed as linear DNA formation at 100 uM after 60 mins by agarose gel electrophoresis.
Experiment [8] addresses T2, NAD-dependent protein deacetylase sirtuin-1 (Homo sapiens) (UniProt Q96EB6).
T2 sequence (whole entry): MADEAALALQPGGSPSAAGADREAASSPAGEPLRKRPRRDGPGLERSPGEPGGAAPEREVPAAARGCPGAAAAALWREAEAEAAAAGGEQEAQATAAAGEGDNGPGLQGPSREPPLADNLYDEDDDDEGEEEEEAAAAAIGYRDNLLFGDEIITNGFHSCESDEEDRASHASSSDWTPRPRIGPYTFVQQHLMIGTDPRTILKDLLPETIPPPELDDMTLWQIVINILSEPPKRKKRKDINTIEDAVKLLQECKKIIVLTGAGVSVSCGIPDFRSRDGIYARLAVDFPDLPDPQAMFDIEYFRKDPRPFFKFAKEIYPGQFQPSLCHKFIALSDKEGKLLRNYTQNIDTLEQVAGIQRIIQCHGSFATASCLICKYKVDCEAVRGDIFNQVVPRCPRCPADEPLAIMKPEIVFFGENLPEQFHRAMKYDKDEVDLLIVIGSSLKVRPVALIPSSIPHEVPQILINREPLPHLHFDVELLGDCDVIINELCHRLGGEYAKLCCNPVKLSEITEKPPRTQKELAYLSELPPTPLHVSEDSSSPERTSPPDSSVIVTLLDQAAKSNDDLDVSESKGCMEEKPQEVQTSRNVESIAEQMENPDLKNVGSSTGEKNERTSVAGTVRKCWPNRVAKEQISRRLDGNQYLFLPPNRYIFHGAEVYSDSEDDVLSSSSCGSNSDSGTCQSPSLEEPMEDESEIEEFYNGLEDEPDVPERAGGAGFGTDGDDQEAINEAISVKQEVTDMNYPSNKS
In words: Inhibition of SIRT1 (unknown origin) using KI177 as substrate preincubated at 200 uM for 5 mins before substrate addition measured after 1 hr by Fluor de Lys fluorescence assay.

The target in experiment [9] is DNA topoisomerase 2-alpha (Homo sapiens) (UniProt P11388). Description: Inhibition of recombinant human topoisomerase 2-mediated relaxation of supercoiled pBR322 DNA at 10 uM after 60 mins by agarose gel electrophoresis.
The target in experiment [10] is T1, DNA topoisomerase 1 (Homo sapiens). Description: Inhibition of recombinant human topoisomerase 1-mediated relaxation of supercoiled pBR322 DNA at 10 uM after 60 mins by agarose gel electrophoresis.
The target of experiment [11] is DNA topoisomerase 2-alpha (Homo sapiens) (UniProt P11388). Description: Inhibition of recombinant human topoisomerase 2-mediated relaxation of supercoiled pBR322 DNA after 60 mins by agarose gel electrophoresis.
The target of experiment [12] is T3, NAD-dependent protein deacetylase sirtuin-2 (Homo sapiens) (UniProt Q8IXJ6).
T3 sequence (whole entry): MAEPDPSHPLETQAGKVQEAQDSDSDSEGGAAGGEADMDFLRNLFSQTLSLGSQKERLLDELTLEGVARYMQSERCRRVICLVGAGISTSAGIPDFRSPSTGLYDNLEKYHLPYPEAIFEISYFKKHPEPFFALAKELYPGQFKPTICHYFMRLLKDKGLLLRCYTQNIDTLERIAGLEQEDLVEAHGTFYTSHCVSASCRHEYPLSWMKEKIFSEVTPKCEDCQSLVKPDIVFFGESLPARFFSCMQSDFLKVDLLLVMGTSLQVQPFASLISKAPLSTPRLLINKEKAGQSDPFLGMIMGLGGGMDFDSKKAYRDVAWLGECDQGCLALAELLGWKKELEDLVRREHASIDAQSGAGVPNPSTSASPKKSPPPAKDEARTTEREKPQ
In words: Inhibition of SIRT2 (unknown origin) using KI179 as substrate preincubated at 200 uM for 5 mins before substrate addition measured after 1 hr by Fluor de Lys fluorescence assay.

Experiment [13] deals with DNA topoisomerase 2-alpha (Homo sapiens) (UniProt P11388). Description: Inhibition of recombinant human topoisomerase 2-mediated relaxation of supercoiled pBR322 DNA at 50 uM after 60 mins by agarose gel electrophoresis.
Experiment [14] has the same target. Description: Stabilization of recombinant human topoisomerase 2-pBR322 DNA cleavage complex assessed as linear DNA formation at 10 uM after 60 mins by agarose gel electrophoresis.

pIC50: −log10 of the molar value. The source made the active and inactive calls. The calls are words filed in the database; no cut-off is given here.

DNA topoisomerase 2-alpha (Homo sapiens), sequence (P11388 whole entry): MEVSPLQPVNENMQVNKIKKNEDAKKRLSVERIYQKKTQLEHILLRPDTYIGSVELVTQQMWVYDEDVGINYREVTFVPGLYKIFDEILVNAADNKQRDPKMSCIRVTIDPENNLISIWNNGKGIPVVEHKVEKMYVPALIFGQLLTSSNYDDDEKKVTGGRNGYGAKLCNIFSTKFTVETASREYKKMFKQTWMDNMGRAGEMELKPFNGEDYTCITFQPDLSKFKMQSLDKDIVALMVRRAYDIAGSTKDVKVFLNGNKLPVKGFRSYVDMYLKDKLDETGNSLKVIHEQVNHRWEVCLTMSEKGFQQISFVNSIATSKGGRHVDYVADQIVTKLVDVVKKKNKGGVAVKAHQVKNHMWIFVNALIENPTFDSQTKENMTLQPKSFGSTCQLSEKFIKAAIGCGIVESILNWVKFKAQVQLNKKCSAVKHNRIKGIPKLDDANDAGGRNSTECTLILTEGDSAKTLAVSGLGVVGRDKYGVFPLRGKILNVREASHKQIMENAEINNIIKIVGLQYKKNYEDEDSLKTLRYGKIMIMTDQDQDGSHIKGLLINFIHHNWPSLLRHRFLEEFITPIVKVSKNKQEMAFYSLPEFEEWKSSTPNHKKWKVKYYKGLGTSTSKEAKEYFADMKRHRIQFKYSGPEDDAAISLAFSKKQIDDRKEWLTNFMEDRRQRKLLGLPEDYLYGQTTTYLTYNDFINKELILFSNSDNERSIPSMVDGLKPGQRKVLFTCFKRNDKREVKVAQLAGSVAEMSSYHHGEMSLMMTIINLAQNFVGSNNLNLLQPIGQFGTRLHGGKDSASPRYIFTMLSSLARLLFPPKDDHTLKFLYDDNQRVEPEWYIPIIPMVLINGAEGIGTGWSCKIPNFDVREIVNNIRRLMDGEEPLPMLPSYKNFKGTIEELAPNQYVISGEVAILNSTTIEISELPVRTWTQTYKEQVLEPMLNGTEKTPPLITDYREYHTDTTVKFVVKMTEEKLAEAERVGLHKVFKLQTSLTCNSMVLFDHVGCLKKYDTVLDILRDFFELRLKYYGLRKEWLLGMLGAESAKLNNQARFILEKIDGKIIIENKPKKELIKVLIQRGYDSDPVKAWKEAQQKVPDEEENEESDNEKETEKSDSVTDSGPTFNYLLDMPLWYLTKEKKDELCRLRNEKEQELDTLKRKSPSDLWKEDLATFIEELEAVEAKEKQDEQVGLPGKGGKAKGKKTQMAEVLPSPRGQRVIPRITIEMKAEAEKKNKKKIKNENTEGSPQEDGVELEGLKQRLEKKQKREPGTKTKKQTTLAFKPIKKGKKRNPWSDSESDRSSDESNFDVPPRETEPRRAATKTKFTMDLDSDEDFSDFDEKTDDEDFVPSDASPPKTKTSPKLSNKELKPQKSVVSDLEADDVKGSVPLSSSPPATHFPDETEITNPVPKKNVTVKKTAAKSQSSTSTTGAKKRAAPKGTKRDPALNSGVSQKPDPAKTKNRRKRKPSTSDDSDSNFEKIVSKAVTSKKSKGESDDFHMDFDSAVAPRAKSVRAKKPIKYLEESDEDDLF

For `COc1ccc(/C=C\c2cc(OC)c(OC)c(OC)c2)cc1OP(=O)(O)O` [FOSBRETABULIN DISODIUM], the negative-log IC50 (pIC50) in experiment [1] is 8.41; in experiment [2], 7.10; in experiment [3], 7.02; in experiment [4] it was 7.09; in [5], 8.54.

For the molecule `CC[C@@]1(O)C(=O)OCc2c1cc1n(c2=O)Cc2cc3ccccc3nc2-1`, the outcome in experiment [6] was Active.

Regarding `COc1ccc2c3c(c4cc(OC)c(OC)cc4c2c1)CN1CCCC[C@H]1C3`, the pIC50 in [1] is 7.64; in experiment [2], 6.74; in experiment [3] it was 6.70; in [4], 6.95; in [5], 7.09. Also, the result in experiment [7] and in experiment [6] was inactive. The results for the inhibition in experiment [8], in experiment [11] and in experiment [12] were 10%, “Dose-dependent effect” and 41%, respectively. Also, the inhibition entry in experiment [9] is “inactive”. Besides, the inhibition result in experiment [10] and in [13] was “Active” in each case.

For `COc1ccc2c3c(c4cc(OC)c(OC)cc4c2c1)CN1CCCC[C@@H]1C3`, the pIC50 in experiment [1] is 7.64; in experiment [2], 7.18; in experiment [3] it was 6.73; in experiment [4], 7.72; in [5] it was 8.13. Also, the outcome in [7] and in experiment [6] was inactive. Further, the inhibition in experiment [8] is 12%; in experiment [11] it was “Dose-dependent effect”; in experiment [12], 65%. Besides, the inhibition result in [9] was “inactive”. Also, the inhibition entry in experiment [10] and in experiment [13] was “Active” throughout.

In the case of `COc1ccc2c3c(c4cc(OC)c(OC)cc4c2c1)CN1CCCCC1C3` (racemic), the pIC50 in experiment [1] was 8.05; in [2] it was 7.12; in experiment [3], 6.92; in [4], 7.15; in experiment [5], 7.54.

With `COc1cc(NS(C)(=O)=O)ccc1Nc1c2ccccc2nc2ccccc12`, the result in experiment [14] was Active.

In general, pIC50 refers to the IC50 on a negative log10 scale, so that one unit is a factor of ten. The term inhibition denotes the relative decrease from the control value, in per cent.
